Legend:
[1] = test system: Phosphodiesterase 3 (Canis lupus familiaris); assay: Inhibition of cAMP Phosphodiesterase 3 at 10 uM
[2] = test system: Phosphodiesterase 3 (Canis lupus familiaris); assay: In vitro inhibition of cAMP PDE III by the compound at a concentration of 10 uM
[3] = biological target: Phosphodiesterase 3 (Canis lupus familiaris); assay: In vitro inhibitory activity against cAMP PDE III.
[4] = test system: Phosphodiesterase 3 (Canis lupus familiaris); assay: In vitro inhibition of cAMP Phosphodiesterase 3 at a concentration of 10 uM
[5] = biological target: Phosphodiesterase 3 (Canis lupus familiaris); assay: Inhibition of cAMP Phosphodiesterase 3
[6] = biological target: Phosphodiesterase 3 (Canis lupus familiaris); assay: Inhibition of cAMP PDE 3
[7] = test system: Phosphodiesterase 3 (Canis lupus familiaris); assay: Inhibition of cAMP PDE 3 at 10 uM
[8] = biological target: Phosphodiesterase 3 (Canis lupus familiaris); assay: Inhibition of cAMP PDE 3; remark: listed apart in the source

Row | inhibition [2] [%] | IC50 [3] [nM] | inhibition [4] [%] | SMILES | other results
1 | 78 | 2200 | – | Oc1ccc2c(-c3ccncc3)nccc2n1 | –
2 | 85 | 1420 | – | CC(=O)c1nccc2nc(O)ccc12 | –
3 | – | – | 34 | Cc1nccn1-c1nccc2nc(O)ccc12 | –
4 | – | – | 28 | Cc1ncn(-c2nccc3nc(O)ccc23)c1C | –
5 | – | – | 56 | Oc1ccc2c(-n3ccnc3)nccc2n1 | –
6 | 78 | 940 | – | Oc1ccc2c(-c3ccc(F)cc3)nccc2n1 | –
7 | – | – | 30 | Cc1cnn(-c2nccc3nc(O)ccc23)c1 | –
8 | – | – | 39 | Cc1ncn(-c2nccc3nc(O)ccc23)n1 | –
9 | – | – | 21 | Cc1cn(-c2nccc3c2ccc(=O)n3C)cn1 | –
10 | – | – | 58 | OCc1cn(-c2nccc3nc(O)ccc23)cn1 | –
11 | 81 | 570 | – | CC(C)Cc1nccc2nc(O)ccc12 | –
12 | 87 | 40 | – | CCc1nccc2nc(O)ccc12 | –
13 | – | – | 43 | Oc1ccc2c(-n3cnc(-c4ccccc4)c3)nccc2n1 | –
14 | – | – | 39 | Oc1ccc2c(-n3cccn3)nccc2n1 | –
15 | 79 | 140 | – | Oc1ccc2c(-c3cccs3)nccc2n1 | –
16 | – | – | 13 | Oc1ccc2c(-n3cnc(C(F)(F)F)c3)nccc2n1 | –
17 | – | – | 46 | O=[N+]([O-])c1cn(-c2nccc3nc(O)ccc23)cn1 | –
18 | 72 | 2800 | – | Cc1cn(-c2nccc3nc(O)ccc23)cn1 | –
19 | 83 | 48 | – | CCCc1nccc2nc(O)ccc12 | –
20 | 58 | 3700 | – | OCc1nccc2nc(O)ccc12 | –
21 | – | – | 18 | Cc1ncc([N+](=O)[O-])n1-c1nccc2nc(O)ccc12 | –
22 | 74 | 140 | – | Oc1ccc2c(-c3ccco3)nccc2n1 | –
23 | 78 | 1400 | – | Oc1ccc2c(-c3ccccc3)nccc2n1 | –

Continued, molecule first:

Row | SMILES | inhibition [2] [%] | IC50 [3] [nM] | inhibition [4] [%] | other results
24 | Oc1ccc2c(-n3cnc(Br)c3)nccc2n1 | – | – | – | inhibition [1]: 43%
25 | Cn1c(=O)ccc2c(-c3ccccc3)nccc21 | – | – | 36 | –
26 | Cc1nccc2nc(O)c(O)cc12 | – | – | 51 | –
27 | Cc1nccc2nc(S)ccc12 | – | – | 81 | IC50 [5]: 960 nM
28 | Oc1ccc2cnccc2n1 | 55 | 18800 | – | –
29 | Oc1ccc2c(C(Cl)Cl)nccc2n1 | – | – | – | IC50 [6]: 160 nM; inhibition [1]: 83%
30 | Oc1ccc2c(-n3cncn3)nccc2n1 | – | – | – | inhibition [1]: 50%
31 | COc1ccc2c(C)nccc2n1 | – | – | 21 | –
32 | Cc1c2ccc(=O)[nH]c2cc[n+]1[O-] | 65 | 3100 | – | –
33 | COc1ccc(-c2nccc3nc(O)ccc23)cc1 | 64 | 3200 | – | –
34 | Cc1nccc2nc(Cl)ccc12 | – | – | – | inhibition [1]: 18%
35 | Oc1ccc2c(Br)nccc2n1 | – | – | – | IC50 [6]: 170 nM; inhibition [1]: 70%
36 | Cc1nccc2c1ccc(=O)n2C | – | – | 17 | –
37 | Nc1ccc(-c2nccc3nc(O)ccc23)cc1 | 91 | 230 | – | –
38 | Cc1nccc2nc(O)c(C#N)cc12 | – | – | 52 | –
39 | Cc1nccc2nc(O)c(N)cc12 | – | – | 59 | –
40 | Cc1nccc2nc(N)ccc12 | – | – | 24 | –
41 | Cc1cc2nc(O)ccc2cn1 | – | – | 53 | –
42 | Cc1nccc2[nH]c(=O)ccc12 [MEDORINONE] | – | – | – | inhibition [7]: 67%; IC50 [8]: 550 nM
43 | Oc1ccc2c(-c3ccc(Br)cc3)nccc2n1 | – | – | 55 | –
44 | Oc1ccc(-c2nccc3nc(O)ccc23)cc1 | – | – | 81 | IC50 [5]: 600 nM
45 | Cc1cc2cnccc2nc1O | – | – | 37 | –
46 | Cc1nccc2nc(O)c(C(N)=O)cc12 | – | – | 39 | –
47 | Oc1ccc2c(-c3ccc(Cl)cc3)nccc2n1 | 78 | 300 | – | –
